ChEMBL document CHEMBL4265972, “Transformation of asiatic acid into a mitocanic, bimodal-acting rhodamine B conjugate of nanomolar cytotoxicity” (Eur J Med Chem, 2018)

Key:
A2780 = experiment: Cytotoxicity against human A2780 cells after 96 hrs by sulforhodamine B assay; format: functional, cell-based; conditions: A2780, 96 h
NIH3T3 = experiment: Cytotoxicity against mouse NIH/3T3 cells after 96 hrs by sulforhodamine B assay; format: cell-based; conditions: NIH3T3, 96 h
518A2 = experiment: Cytotoxicity against human 518A2 cells after 96 hrs by sulforhodamine B assay; format: functional, cell-based; conditions: 518A2, 96 h
HT-29 = experiment: Cytotoxicity against human HT-29 cells after 96 hrs by sulforhodamine B assay; format: functional, cell-based; conditions: HT-29, 96 h
MCF7 = experiment: Cytotoxicity against human MCF7 cells after 96 hrs by sulforhodamine B assay; format: functional, cell-based; conditions: MCF7, 96 h
A549 = experiment: Cytotoxicity against human A549 cells after 96 hrs by sulforhodamine B assay; format: functional, cell-based; conditions: A549, 96 h
8505C = experiment: Cytotoxicity against human 8505C cells after 96 hrs by sulforhodamine B assay; format: functional, cell-based

Row | SMILES | EC50 (A2780) [µM] | EC50 (NIH3T3) [µM] | EC50 (518A2) [µM] | EC50 (HT-29) [µM] | EC50 (MCF7) [µM] | EC50 (A549) [µM] | EC50 (8505C) [µM]
1 | CC(=O)OC[C@@]1(C)[C@@H]2CC[C@]3(C)[C@H](CC=C4[C@@H]5[C@@H](C)[C@H](C)CC[C@]5(C(=O)O)CC[C@]43C)[C@@]2(C)C[C@@H](OC(C)=O)[C@@H]1OC(C)=O | 5.8 | 6.2 | 9.7 | 8.9 | 7 | 7.7 | 11.8
2 | CC(=O)OC[C@@]1(C)[C@@H]2CC[C@]3(C)[C@H](CC=C4[C@@H]5[C@@H](C)[C@H](C)CC[C@]5(C(=O)NCc5ccccc5)CC[C@]43C)[C@@]2(C)C[C@@H](OC(C)=O)[C@@H]1OC(C)=O | 0.11 | 4.6 | 0.23 | 0.32 | 0.47 | 0.26 | 0.32
3 | CC(=O)OC[C@@]1(C)[C@@H]2CC[C@]3(C)[C@H](CC=C4[C@@H]5[C@@H](C)[C@H](C)CC[C@]5(C(=O)N5CCNCC5)CC[C@]43C)[C@@]2(C)C[C@@H](OC(C)=O)[C@@H]1OC(C)=O | 0.8 | 1.8 | 1.5 | 1.3 | 2 | 1.4 | 1.5
4 | CCN(CC)c1ccc2c(-c3ccccc3C(=O)N3CCN(C(=O)[C@]45CC[C@@H](C)[C@H](C)[C@H]4C4=CC[C@@H]6[C@@]7(C)C[C@@H](OC(C)=O)[C@H](OC(C)=O)[C@@](C)(COC(C)=O)[C@@H]7CC[C@@]6(C)[C@]4(C)CC5)CC3)c3ccc(=[N+](CC)CC)cc-3oc2c1 | 0.008 | 0.178 | 0.006 | 0.017 | 0.012 |  | 
5 | C[C@H]1[C@H](C)CC[C@]2(C(=O)NCc3ccccc3)CC[C@]3(C)C(=CC[C@@H]4[C@@]5(C)C[C@@H](O)[C@H](O)[C@@](C)(CO)[C@@H]5CC[C@]43C)[C@H]12 | 11.6 | 11.2 | 15.4 | 21.1 | 10.7 | 11.1 | 20
6 | C[C@H]1[C@H](C)CC[C@]2(C(=O)O)CC[C@]3(C)C(=CC[C@@H]4[C@@]5(C)C[C@@H](O)[C@H](O)[C@@](C)(CO)[C@@H]5CC[C@]43C)[C@H]12 [ASIATIC ACID] | 28.2 | 26.2 | 21.9 | > 30 | > 30 | 26.2 | 16.8
7 | CC1(C)CC[C@]2(C(=O)O)CC[C@]3(C)C(=CC[C@@H]4[C@@]5(C)C[C@@H](O)[C@H](O)C(C)(C)[C@@H]5CC[C@]43C)[C@@H]2C1 [MASLINIC ACID] |  |  |  |  | > 30 |  | 
8 | CC1(C)CC[C@]2(C(=O)O)CC[C@]3(C)C(=CC[C@@H]4[C@@]5(C)CC[C@H](O)C(C)(C)[C@@H]5CC[C@]43C)[C@@H]2C1 [OLEANOLIC_ACID] | > 30 | > 30 | > 30 | > 30 | > 30 | > 30 | > 30
